Patent US20160168540A1, “COMPOSITION FOR MAINTAINING PLATELET FUNCTION” (KYOTO UNIVERSITY, priority 2013, published 2016)

Target: T1, TACE (ADAM17) (Homo sapiens, UniProt P78536)
T1 construct: made in house; host or cells: mammalian cells or insect cells
Assay: TACE (ADAM17) inhibition test
Type: biochemical
Conditions: fluorescent synthetic substrate, 37° C. for 1.5 hours; read-out: TACE IC50
Description: The nucleotide sequence of TACE has been reported by Moss et al. (Moss, M. L. et al., Nature 1997, vol. 385, pp. 733-736). Based on this information, the cDNA of TACE was obtained according to the prescribed method from THP-1 cells or the like, and then incorporated the cDNA into an expression vector. Next, this vector was transformed into mammalian cells or insect cells, and TACE protein was expressed. The TACE protein was isolated, and used as an enzyme. Further, a fluorescent synthetic substrate Nma(N-methylanthranilic acid)-Leu-Ala-Gln-Ala-Val-Arg-Ser-Ser-Lys(Dnp(dinitrophenyl))-D-Arg-NH2 including the TACE-cleaved sequence of a membrane-bound TNF was used as a substrate. The enzyme reaction was carried out by adding 1.8 μL of a solution of the test substance to 90 μL of a fluorescent synthetic substrate prepared with an assay buffer B (50 mM tris-hydrochloric acid buffer (pH 7.5) including 200 mM sodium chloride, 5 mM calcium chloride, 10 μM zinc sulfate, and 0.05% PLURONIC F-68), then mixing 90 μL of a TACE enzyme solution prepared with an assay buffer A (50 mM tris-hydrochloric acid buffer (pH 7.5) including 200 mM sodium chloride, 5 mM calcium chloride, 10 μM zinc sulfate, and 2 mg/mL bovine serum albumin) and reacting at 37° C. for 1.5 hours. Enzyme activity was then determined by measuring with a fluorescence intensity meter (Labsystems, Fluoroskan Ascent) at an excitation wavelength of 355 nm and a measurement wavelength of 460 nm. The 50% inhibitory concentration (IC50) of the test substances was calculated by comparing enzyme activity in the presence and the absence of the test substance to determine the inhibition rate. Further, test substances having an IC50 strength of less than 100 nM were evaluated as “A”, and test substances having an IC50 strength of 100 nM or more were evaluated as “B”.

T1 sequence (P78536 215-824): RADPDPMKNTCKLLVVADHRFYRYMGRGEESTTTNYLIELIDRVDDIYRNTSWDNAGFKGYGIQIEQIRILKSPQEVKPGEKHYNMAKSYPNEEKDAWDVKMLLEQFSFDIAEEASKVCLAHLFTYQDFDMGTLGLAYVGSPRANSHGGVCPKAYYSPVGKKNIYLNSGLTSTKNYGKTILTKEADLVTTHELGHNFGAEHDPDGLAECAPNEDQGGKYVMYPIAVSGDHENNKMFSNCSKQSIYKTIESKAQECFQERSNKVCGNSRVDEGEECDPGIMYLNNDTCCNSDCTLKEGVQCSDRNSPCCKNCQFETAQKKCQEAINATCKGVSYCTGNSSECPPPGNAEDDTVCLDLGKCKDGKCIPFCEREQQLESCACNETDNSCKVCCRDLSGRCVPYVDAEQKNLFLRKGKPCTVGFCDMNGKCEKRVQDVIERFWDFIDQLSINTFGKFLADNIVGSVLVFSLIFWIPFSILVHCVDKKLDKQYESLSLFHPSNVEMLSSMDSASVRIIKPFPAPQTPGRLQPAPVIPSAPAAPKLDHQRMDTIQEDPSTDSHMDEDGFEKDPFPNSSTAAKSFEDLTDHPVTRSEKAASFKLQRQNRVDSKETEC

Row | SMILES | IC50
1 | Cc1cccn(CC2(c3ccc(Oc4cccc(F)c4)cc3)NC(=O)NC2=O)c1=O (racemic) [Compound I-84] | < 100 nM
2 | Cc1cccn(CC2(c3ccc(Oc4ccc(F)cc4)cc3)NC(=O)NC2=O)c1=O (racemic) [Compound I-85] | < 100 nM
3 | Cc1cccn(CC2(c3ccc(Oc4ccccc4F)cc3)NC(=O)NC2=O)c1=O (racemic) [Compound I-86] | < 100 nM
4 | Cc1cccn(CC2(c3ccc(Oc4ccccc4)c(F)c3)NC(=O)NC2=O)c1=O (racemic) [Compound I-87] | < 100 nM
5 | Cc1cccn(CC2(c3ccc(OCc4ccc(F)cc4)cc3)NC(=O)NC2=O)c1=O (racemic) [Compound I-88] | < 100 nM
6 | Cc1cccn(CC2(c3ccc(C(F)(F)F)cc3)NC(=O)NC2=O)c1=O (racemic) [Compound I-89] | < 100 nM
7 | Cc1noc(C)c1-c1ccc(C2(Cn3cccc(C)c3=O)NC(=O)NC2=O)cc1 (racemic) [Compound I-90] | < 100 nM
8 | COc1ccncc1-c1ccc(C2(Cn3cccc(C)c3=O)NC(=O)NC2=O)cc1 (racemic) [Compound I-91] | < 100 nM
9 | Cc1cccn(CC2(c3ccc(-c4ccccn4)cc3)NC(=O)NC2=O)c1=O (racemic) [Compound I-92] | < 100 nM
10 | Cc1cccn(CC2(c3cccc(-c4ccc(F)cn4)c3)NC(=O)NC2=O)c1=O (racemic) [Compound I-93] | < 100 nM
11 | Cc1cccn(CC2(c3cccc(-c4ccccn4)c3)NC(=O)NC2=O)c1=O (racemic) [Compound I-94] | < 100 nM
12 | Cc1cccn(CC2(c3cccc(-c4ccncc4)c3)NC(=O)NC2=O)c1=O (racemic) [Compound I-95] | < 100 nM
13 | Cc1cccn(CC2(c3cccc(-c4ccccc4)c3)NC(=O)NC2=O)c1=O (racemic) [Compound I-96] | < 100 nM
14 | Cc1cccn(CC2(c3ccc(Oc4ccc(F)cc4F)cc3)NC(=O)NC2=O)c1=O (racemic) [Compound I-97] | < 100 nM
15 | Cc1cccn(CC2(c3ccc(Oc4ccc(F)c(F)c4)cc3)NC(=O)NC2=O)c1=O (racemic) [Compound I-98] | < 100 nM
16 | Cc1cccn(CC2(c3ccc(Oc4cc(F)cc(F)c4)cc3)NC(=O)NC2=O)c1=O (racemic) [Compound I-99] | < 100 nM
17 | Cc1cccn(CC2(c3ccc(Oc4cccc(C(F)(F)F)c4)cc3)NC(=O)NC2=O)c1=O (racemic) [Compound I-100] | < 100 nM
18 | Cc1cccn(CC2(c3ccc(Oc4cccnc4)cc3)NC(=O)NC2=O)c1=O (racemic) [Compound I-101] | < 100 nM

Row | SMILES | IC50
19 | Cc1cccn(CC2(c3ccc(Sc4ccccc4)cc3)NC(=O)NC2=O)c1=O (racemic) [Compound I-102] | < 100 nM
20 | Cc1cccn(CC2(c3ccc(Sc4ccccc4)c(F)c3)NC(=O)NC2=O)c1=O (racemic) [Compound I-103] | < 100 nM
21 | Cc1cccn(CC2(c3ccc(Oc4ccccc4F)c(F)c3)NC(=O)NC2=O)c1=O (racemic) [Compound I-104] | < 100 nM
22 | Cc1cccn(CC2(c3ccc4c(c3)OCCCO4)NC(=O)NC2=O)c1=O (racemic) [Compound I-105] | < 100 nM
23 | Cc1cccn(CC2(c3ccc(C#Cc4ccccc4)cc3)NC(=O)NC2=O)c1=O (racemic) [Compound I-106] | < 100 nM
24 | Cc1cccn(CC2(c3ccc(CCc4ccccc4)cc3)NC(=O)NC2=O)c1=O (racemic) [Compound I-107] | < 100 nM
25 | C=C(C)c1ccc(C2(Cn3cccc(C)c3=O)NC(=O)NC2=O)cc1 (racemic) [Compound I-108] | < 100 nM
26 | Cc1cccn(CC2(c3ccc(C#Cc4ccccn4)cc3)NC(=O)NC2=O)c1=O (racemic) [Compound I-110] | < 100 nM
27 | Cc1cccn(CC2(c3ccc(Oc4ccc(F)cc4)c(F)c3)NC(=O)NC2=O)c1=O (racemic) [Compound I-111] | < 100 nM
28 | Cc1cccn(CC2(c3ccc(Oc4cccc(F)c4)c(F)c3)NC(=O)NC2=O)c1=O (racemic) [Compound I-112] | < 100 nM
29 | COc1ccccc1Oc1ccc(C2(Cn3cccc(C)c3=O)NC(=O)NC2=O)cc1 (racemic) [Compound I-113] | < 100 nM
30 | COc1ccccc1Oc1ccc(C2(Cn3cccc(C)c3=O)NC(=O)NC2=O)cc1F (racemic) [Compound I-114] | < 100 nM
31 | Cc1cccn(CC2(c3ccc(CCc4ccccn4)cc3)NC(=O)NC2=O)c1=O (racemic) [Compound I-115] | < 100 nM
32 | CCc1ccc(C2(Cn3cccc(C)c3=O)NC(=O)NC2=O)cc1 (racemic) [Compound I-116] | < 100 nM
33 | Cc1cccn(CC2(c3ccc(C(C)C)cc3)NC(=O)NC2=O)c1=O (racemic) [Compound I-117] | < 100 nM
34 | Cc1cccn(CC2(c3ccc(CCC4CCCCC4)cc3)NC(=O)NC2=O)c1=O (racemic) [Compound I-118] | ≥ 100 nM
35 | CCOc1ccc(C2(Cn3cccc(C)c3=O)NC(=O)NC2=O)cc1 (racemic) [Compound I-119] | < 100 nM

Continued, values first:

Row | IC50 | SMILES
36 | < 100 nM | Cc1cccn(CC2(c3ccc(OC(C)C)cc3)NC(=O)NC2=O)c1=O (racemic) [Compound I-120]
37 | < 100 nM | Cc1cccn(CC2(c3ccc(CC(C)C)cc3)NC(=O)NC2=O)c1=O (racemic) [Compound I-121]
38 | < 100 nM | Cc1cccn(CC2(c3ccc(Oc4cccnc4)c(F)c3)NC(=O)NC2=O)c1=O (racemic) [Compound I-122]
39 | < 100 nM | Cc1cccn(CC2(c3ccc(Oc4ccccc4)c(Cl)c3)NC(=O)NC2=O)c1=O (racemic) [Compound I-123]
40 | < 100 nM | Cc1cccn(CC2(c3ccc(OC4CCCC4)cc3)NC(=O)NC2=O)c1=O (racemic) [Compound I-124]
41 | < 100 nM | Cc1cccn(CC2(c3ccc(Cl)c(Cl)c3)NC(=O)NC2=O)c1=O (racemic) [Compound I-125]
42 | < 100 nM | Cc1cccn(CC2(c3ccc(F)c(Cl)c3)NC(=O)NC2=O)c1=O (racemic) [Compound I-126]
43 | < 100 nM | COc1cc(C2(Cn3cccc(C)c3=O)NC(=O)NC2=O)cc(F)c1F (racemic) [Compound I-127]
44 | < 100 nM | Cc1ccc(C2(Cn3cccc(C)c3=O)NC(=O)NC2=O)c(F)c1F (racemic) [Compound I-128]
45 | < 100 nM | Cc1cc(C2(Cn3cccc(C)c3=O)NC(=O)NC2=O)cc(C)c1OC1CCCC1 (racemic) [Compound I-129]
46 | < 100 nM | Cc1cccn(CC2(c3ccc(Cc4ccc(Cl)cc4)cc3)NC(=O)NC2=O)c1=O (racemic) [Compound I-130]
47 | < 100 nM | Cc1cc(C2(Cn3cccc(C)c3=O)NC(=O)NC2=O)ccc1OC1CCCCC1 (racemic) [Compound I-131]
48 | < 100 nM | O=C1NC(=O)C(Cn2cccc(F)c2=O)(c2ccccc2)N1 (racemic) [Compound I-132]
49 | < 100 nM | COc1ccc(C2(Cn3cccc(F)c3=O)NC(=O)NC2=O)cc1 (racemic) [Compound I-133]
50 | < 100 nM | N#Cc1ccc(C2(Cn3cccc(F)c3=O)NC(=O)NC2=O)cc1 (racemic) [Compound I-134]
51 | < 100 nM | O=C1NC(=O)C(Cn2cccc(F)c2=O)(c2ccc3ccccc3c2)N1 (racemic) [Compound I-135]
52 | < 100 nM | O=C1NC(=O)C(Cn2cccc(Cl)c2=O)(c2ccc(F)cc2)N1 (racemic) [Compound I-136]
53 | < 100 nM | COc1ccc(C2(Cn3cccc(Cl)c3=O)NC(=O)NC2=O)cc1 (racemic) [Compound I-137]
54 | < 100 nM | N#Cc1ccc(C2(Cn3cccc(Cl)c3=O)NC(=O)NC2=O)cc1 (racemic) [Compound I-138]
